In US11166924B2, “N-methyl-d-aspartate receptor allosteric modulators and methods for their use” (Qingdao Primedicine Pharmaceutical Company, Ltd., priority 2016, dated 2021):
Each block holds one molecule with its values, some of them ahead of it.

What was measured:
Assay type in all cases: cell-based
[1] = target: NMDARs in cultured hippocampal neurons (Rattus norvegicus, UniProt P35439+Q00959); assay: Whole-cell voltage clamp recordings of NMDAR currents in cultured hippocampal/cortical neurons; settings: for Potentiation or depression of NMDAR-currents: tested in a similar fashion as Npam02, FIG. 4c
[2] = target: T1, GluN1/GluN2A NMDARs (Rattus norvegicus, UniProt P35439+Q00959); assay: Whole-cell patch clamp recordings in HEK293 cells transfected with GluN1/GluN2A
T1 construct: expressed in transfected cells; host or cells: HEK293
Method: Cells were transfected with a combination of pcDNA3-CMV expression vectors, each of which expressed one of the rat recombinant (GluN2AWT, GluN1WT, GluN2BWT) subunits. The sequences of all plasmids were confirmed by automated DNA sequencing. Human Embryonic Kidney 293 (HEK293 cells) were cultured in Dulbecco's Modified Eagle's Medium (DMEM) (Invitrogen) supplemented with 10% fetal bovine serum (FBS). When HEK293 cells achieved 90% confluence, plasmids of either GluN1 & GluN2A or GluN1 & GluN2B were co-transfected into the cells using Lipofectamine 2000 (Invitrogen, 11668019) according to manufacturer's instructions. HEK293 cells were then maintained in the 37° C. incubator with […] and 5% CO2 for 48 hrs before being used in experiments. The transfection ratios for the NMDAR subunit combinations were all 1:1 (GluN1/GluN2A or GluN1/GluN2B).
Whole cell patch-clamp recordings were performed under voltage-clamp mode using an Axopatch 200B or 1D patch-clamp amplifier (Molecular Devices). Whole-cell currents were recorded at a holding potential of −60 mV unless indicated elsewhere, and signals were filtered at 2 kHz, digitized at 10 kHz (Digidata 1322A). Recording pipettes (3-5 MΩ) were filled with intracellular solution containing (mM): CsCl 140, HEPES 10, Mg-ATP 4, QX-314 5, pH 7.20; osmolarity, 290-295 mOsm. BAPTA (10 mM) was added in the intracellular solution (unless otherwise specified). The coverslips were continuously superfused with extracellular solution containing (mM): NaCl 140, KCl 5.4, HEPES 10, CaCl2 1.3, glucose 20, pH 7.4; osmolarity, 305-315 mOsm. NMDA-induced currents were applied by NMDA through perfusion fast-step (Warner Instruments). With perfusion fast-step system, NMDA application was achieved by using a two-square barrel glass tubing and depending on the age of the cultured neurons, CNQX (10 μM), TTX (0.5 μM) or BIC (10 μM) were added in the extracellular solution to minimize the activation of ionotropic glutamate receptors and voltage-gated sodium channels, respectively. All experiments were performed at room temperature. Recordings from at least six HEK293 cells/neurons were performed for all active compounds. Data were pooled among HEK293 cells or primary neurons and composite dose-response data were fitted by the equation Percentage Response=100×Relative Efficacy/[1+(EC50/Concentration)nH], where EC50 is the concentration of agonist that produces a half-maximal response, relative efficacy is the response at maximally effective concentration relative to the maximal response of glutamate, and nH is the Hill slope.
GluN1/GluN2A NMDAR subtypes are an attractive target for positive allosteric modulation. The present inventors employed in silico computational drug discovery methods to conduct a virtual screen of purchasable lead-like compounds from the ZINC database (Irwin, J., et al. Abstr Pap Am Chem Soc (2005) 230:U1009) and some synthetic compounds to identify potential GluN1/GluN2A-NMDAR modulators. The in silico methods included large-scale docking against the interstice interface of the GluN1/GluN2A heterodimer and consensus scoring to select compounds for empirical testing. Candidate compounds were further screened by using GluN1/GluN2A transiently transfected in human embryonic kidney (HEK293) cells and tested by whole-cell patch clamp recordings.
The inventors used transiently transfected HEK293 cells expressing either GluN1/GluN2A or GluN1/GluN2B NMDARs and tested by whole-cell voltage patch clamp recordings to see whether selected compounds were controlling the subtype selectivity profile of the drugs.
Whole-cell patch clamp recordings were performed to measure glutamate evoked currents with chloride-based pipette solutions at a holding potential of −60 mV.

[3] = target: T2, GluN2A NMDARs in GluN2B-lacking neurons (Mus musculus, UniProt P35436+P35438); assay: Whole-cell recordings in GluN2B-knockout cortical neurons; settings: 0.2 μM with NMDA 20 μM; conditional GluN2B-knockout neurons
T2 construct: endogenous in cells; host or cells: primary cortical neurons from GluN2B-knockout mouse embryos

[4] = target: T3, GluN1/GluN2B NMDARs (Rattus norvegicus, UniProt P35439+Q00960); assay: Whole-cell patch clamp recordings in HEK293 cells transfected with GluN1/GluN2B; settings: HEK293, Table 2, read-out: Normalized Potentiation GluN1/GluN2B
T3 construct: expressed in transfected cells; host or cells: HEK293

[5] = HEK293, Table 2, read-out: Normalized Potentiation GluN1/GluN2A

NMDARs in cultured hippocampal neurons, sequence (Q00959 23-1464, other chains not shown): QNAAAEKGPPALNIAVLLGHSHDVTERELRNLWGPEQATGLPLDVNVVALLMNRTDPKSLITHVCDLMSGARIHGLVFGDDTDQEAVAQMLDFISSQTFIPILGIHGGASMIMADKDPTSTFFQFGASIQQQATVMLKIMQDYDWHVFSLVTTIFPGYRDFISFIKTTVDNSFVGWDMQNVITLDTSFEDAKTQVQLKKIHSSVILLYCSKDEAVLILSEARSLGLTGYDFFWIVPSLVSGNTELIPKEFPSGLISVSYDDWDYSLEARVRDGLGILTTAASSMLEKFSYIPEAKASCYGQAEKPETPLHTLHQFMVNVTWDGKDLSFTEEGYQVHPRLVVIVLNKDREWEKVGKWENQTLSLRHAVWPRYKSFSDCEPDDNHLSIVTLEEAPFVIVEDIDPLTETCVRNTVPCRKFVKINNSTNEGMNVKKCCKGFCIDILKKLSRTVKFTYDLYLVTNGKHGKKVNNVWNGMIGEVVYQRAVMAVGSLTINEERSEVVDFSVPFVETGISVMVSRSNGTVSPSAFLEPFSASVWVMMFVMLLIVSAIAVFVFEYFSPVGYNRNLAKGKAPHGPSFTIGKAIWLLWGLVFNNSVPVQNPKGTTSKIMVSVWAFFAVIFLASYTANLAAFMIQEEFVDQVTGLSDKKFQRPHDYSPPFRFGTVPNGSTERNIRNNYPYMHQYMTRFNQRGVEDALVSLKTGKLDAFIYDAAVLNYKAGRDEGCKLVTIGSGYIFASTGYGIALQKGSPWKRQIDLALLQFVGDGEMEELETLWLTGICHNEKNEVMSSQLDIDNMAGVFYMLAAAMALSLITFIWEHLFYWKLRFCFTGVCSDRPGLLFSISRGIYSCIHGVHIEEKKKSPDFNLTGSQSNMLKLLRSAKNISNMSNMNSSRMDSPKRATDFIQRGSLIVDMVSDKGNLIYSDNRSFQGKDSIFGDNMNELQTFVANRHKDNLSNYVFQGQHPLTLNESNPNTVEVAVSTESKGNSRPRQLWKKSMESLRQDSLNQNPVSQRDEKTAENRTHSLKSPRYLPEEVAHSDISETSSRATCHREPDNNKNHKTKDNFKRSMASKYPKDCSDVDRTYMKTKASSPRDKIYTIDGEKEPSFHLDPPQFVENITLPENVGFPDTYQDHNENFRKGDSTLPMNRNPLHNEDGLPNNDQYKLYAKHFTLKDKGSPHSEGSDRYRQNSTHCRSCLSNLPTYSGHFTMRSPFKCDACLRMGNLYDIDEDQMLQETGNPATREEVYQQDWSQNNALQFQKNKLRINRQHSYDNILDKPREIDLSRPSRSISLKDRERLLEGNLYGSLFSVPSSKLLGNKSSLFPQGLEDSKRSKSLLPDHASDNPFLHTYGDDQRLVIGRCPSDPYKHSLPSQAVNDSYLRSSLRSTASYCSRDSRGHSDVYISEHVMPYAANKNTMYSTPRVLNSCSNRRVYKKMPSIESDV
T1 sequence (Q00959 23-1464, other chains not shown): as above
T3 sequence (Q00960 27-1482, other chains not shown): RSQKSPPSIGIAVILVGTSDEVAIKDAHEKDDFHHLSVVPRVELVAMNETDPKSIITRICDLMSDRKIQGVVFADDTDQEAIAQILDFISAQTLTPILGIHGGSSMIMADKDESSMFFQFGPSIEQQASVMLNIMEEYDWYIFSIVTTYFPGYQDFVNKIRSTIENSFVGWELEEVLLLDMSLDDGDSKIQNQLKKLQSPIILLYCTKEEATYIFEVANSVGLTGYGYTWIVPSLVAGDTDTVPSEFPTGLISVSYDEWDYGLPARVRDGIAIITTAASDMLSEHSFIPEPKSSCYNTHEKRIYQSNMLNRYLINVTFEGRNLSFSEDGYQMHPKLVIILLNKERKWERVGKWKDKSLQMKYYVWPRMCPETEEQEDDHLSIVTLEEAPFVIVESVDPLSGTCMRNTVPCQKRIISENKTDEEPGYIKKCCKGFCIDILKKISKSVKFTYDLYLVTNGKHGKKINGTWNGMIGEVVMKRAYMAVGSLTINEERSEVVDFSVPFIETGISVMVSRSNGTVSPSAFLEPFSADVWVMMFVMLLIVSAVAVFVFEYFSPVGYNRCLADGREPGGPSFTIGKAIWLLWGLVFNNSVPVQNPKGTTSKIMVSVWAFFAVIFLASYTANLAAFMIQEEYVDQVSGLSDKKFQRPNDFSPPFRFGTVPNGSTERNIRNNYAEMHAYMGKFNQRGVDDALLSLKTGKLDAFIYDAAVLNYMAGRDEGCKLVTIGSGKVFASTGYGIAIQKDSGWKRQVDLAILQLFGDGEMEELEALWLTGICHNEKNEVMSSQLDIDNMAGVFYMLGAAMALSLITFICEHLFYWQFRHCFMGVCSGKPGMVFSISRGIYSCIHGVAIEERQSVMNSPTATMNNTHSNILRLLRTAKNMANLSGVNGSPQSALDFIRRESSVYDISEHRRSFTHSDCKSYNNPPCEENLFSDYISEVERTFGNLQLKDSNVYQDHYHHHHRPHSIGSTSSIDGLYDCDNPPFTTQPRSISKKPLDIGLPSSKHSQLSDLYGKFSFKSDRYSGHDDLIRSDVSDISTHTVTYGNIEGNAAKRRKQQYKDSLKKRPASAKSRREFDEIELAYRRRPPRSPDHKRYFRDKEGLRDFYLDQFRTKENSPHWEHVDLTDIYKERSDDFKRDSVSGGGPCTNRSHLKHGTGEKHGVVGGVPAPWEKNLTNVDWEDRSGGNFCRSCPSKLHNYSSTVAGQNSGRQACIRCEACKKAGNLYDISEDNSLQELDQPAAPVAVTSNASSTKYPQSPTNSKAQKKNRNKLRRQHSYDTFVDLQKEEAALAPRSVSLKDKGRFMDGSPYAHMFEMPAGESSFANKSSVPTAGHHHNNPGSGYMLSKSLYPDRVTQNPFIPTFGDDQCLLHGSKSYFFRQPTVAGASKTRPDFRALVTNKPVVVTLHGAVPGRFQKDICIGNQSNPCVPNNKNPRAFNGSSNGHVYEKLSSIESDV

Block of the Npam02-increased NMDAR currents ([2]; 0.2 μM co-applied with both co-agonists): completely blocked
Block of NMDAR-currents [3]: 90.73±1.11%
SMILES: C[C@H](NC(c1cccc2[nH]c(=O)c(=O)[nH]c12)P(=O)(O)O)c1ccc(Br)cc1 (stereo partly shown) [NVP-AAM007, reference compound]

activation at 100 µM [2, 5]: 33.7 ± 4.84%
activation at 100 µM [4]: -54.6 ± 5.48%
SMILES: Cc1ccccc1C(=O)N/N=C/c1cccc(O)c1O [Npam04, (E)-N′-(2,3-dihydroxybenzylidene)-2-methylbenzohydrazide]
Potentiation or depression of NMDAR-currents [1]: no observable potentiation or depression effect

activation at 50 µM ([2]; HEK293, Table 2, 50 μM (footnote *), read-out: Normalized Potentiation GluN1/GluN2A): 30.7 ± 4.76%
activation at 50 µM ([4]; 50 μM (footnote *)): -49.9 ± 6.87%
SMILES: O=C(N/N=C/c1cccc(O)c1O)c1ccc(Br)cc1 [Npam73, (E)-4-bromo-N′-(2,3-dihydroxybenzylidene)benzohydrazide]

Continued, molecule first:

SMILES: N[C@@H](CCCP(=O)(O)O)C(=O)O [APV, reference compound]
Block of currents ([1]; 50 μM): blocked all currents

SMILES: CN[C@H](CC(=O)O)C(=O)O [NMDA, reference compound]
pEC50 of NMDA dose-response curve ([1]; cultured hippocampal neurons, FIG. 13): 1.484±0.082 μM
EC50 ([1]; cultured hippocampal neurons, FIG. 13, read-out: EC50 of NMDA dose-response curve): 30.5 ± 11.7 µM

SMILES: O=C(N/N=C/c1cccc(O)c1O)c1ccccc1 [Npam01, (E)-N′-(2,3-dihydroxybenzylidene)benzohydrazide]
activation at 100 µM [2, 5]: 26.2 ± 2.24%
Normalized Potentiation ([2]; Table 1, positive modulation of GluN1/GluN2A NMDARs, concentration not given): 2.61 ± 9.69%
activation at 100 µM [4]: -28 ± 5.11%
Potentiation or depression of NMDAR-currents [1]: no observable potentiation or depression effect

SMILES: COc1cc(Cl)cc(/C=N/NC(=O)c2ccccc2Br)c1O [Npam75, (E)-2-bromo-N′-(5-chloro-2-hydroxy-3-methoxybenzylidene)benzohydrazide]
activation at 100 µM [2, 5]: 57.2 ± 3.78%
activation at 100 µM [4]: -17 ± 2.14%
